For 21 compounds, IC50 results are on record in patent US12473296B2, “Perk inhibiting compounds” (HiberCell, Inc., priority 2019, dated 2025).

For assay [1], the target named is EIF2AK3 (PERK) catalytic domain (amino acids 536-1116) (Homo sapiens (Human), UniProt Q9NZJ5). The assay is described as follows: PERK in vitro activity assay (isolated), TR-FRET kinase assay. Particulars: isolated PERK enzyme, 1.5 μM ATP, GFP-eIF2a substrate; read-out: Biochemical IC50. The source says:
PERK In Vitro Activity Assay (Isolated):
In vitro Inhibition of PERK Enzyme Activity (isolated) Recombinant human EIF2AK2 (PKR) catalytic domain (amino acids 252-551), EIF2AK3 (PERK) catalytic domain (amino acids 536-1116), GFP-eIF2a substrate, and Terbium-labelled phospho-eIF2a antibody is obtained (Invitrogen, Carlsbad, CA).
Express and purify HIS-SUMO-GCN2 catalytic domain (amino acids 584-1019) from E. coli. Perform TR-FRET kinase assays in the absence or presence of inhibitors in a reaction buffer consisting of 50 mM HEPES, pH 7.5, 10 mM MgCb, 1.0 mM EGTA, and 0.01% Brij-35, and 100-200 nM GFP-eIF2a substrate. […] Add test compound, initiate the reaction by addition of enzyme, and incubate at room temperature for 45 minutes. Stop the reaction by addition of EDTA to a final concentration of 10 mM, add Terbium-labelled phospho-eIF2a antibody at a final concentration of 2 nM, and incubate for 90 minutes. Monitor the resulting fluorescence in an EnVison® Multilabel reader (PerkinElmer, Waltham, MA). Determine TR-FRET ratios and the resulting IC50 values using a 4-parameter nonlinear logistic equation as shown: Y=(A+((B−A)/(1+((C/x)[…])))) where, Y=% specific inhibition, A=Bottom of the curve, B=Top of the curve, C=absolute IC50 (concentration causing 50% inhibition), and D=hill slope.

Assay [2] deals with PERK (Homo sapiens (Human), UniProt Q9NZJ5). Description: PERK cellular assay (TR-FRET, HEK293-EGFP-eIF2α cells, tunicamycin-induced ER stress). It counts as cell-based. Particulars: tunicamycin 2 hours, read-out: Cellular IC50 (μM) (EIF2a). The protocol:
Stable cell lines were created in HEK293 cells using lentiviral particles harboring an expression vector for GFP-eIF2α. Cells were selected using puromycin and enriched using fluorescence activated cell sorting against GFP. HEK293-EGFP-eIF2α cells were plated at 5000 cells/well in 384-well assay plates and incubated overnight at 37° C., 5% CO2. Inhibitor compounds were added to the wells by Echo acoustic dispensing and incubated for 30 minutes at 37° C., 5% CO2 prior to induction of ER stress by addition of tunicamycin to […] for 2 hours. Cells were lysed and TR-FRET was measured in an EnVision plate reader (PerkinElmer). FRET ratio data was normalized to signal from lysates treated with DMSO vehicle control and plotted as percent inhibition against 10-point; 3-fold dilution series of inhibitors. IC50 values were calculated using 4-parameter logistical fitting in XLFit.
Background: TR-FRET usually uses a lanthanide donor and a delayed reading to cut background.

Chain of PERK (Q9NZJ5 30-1116): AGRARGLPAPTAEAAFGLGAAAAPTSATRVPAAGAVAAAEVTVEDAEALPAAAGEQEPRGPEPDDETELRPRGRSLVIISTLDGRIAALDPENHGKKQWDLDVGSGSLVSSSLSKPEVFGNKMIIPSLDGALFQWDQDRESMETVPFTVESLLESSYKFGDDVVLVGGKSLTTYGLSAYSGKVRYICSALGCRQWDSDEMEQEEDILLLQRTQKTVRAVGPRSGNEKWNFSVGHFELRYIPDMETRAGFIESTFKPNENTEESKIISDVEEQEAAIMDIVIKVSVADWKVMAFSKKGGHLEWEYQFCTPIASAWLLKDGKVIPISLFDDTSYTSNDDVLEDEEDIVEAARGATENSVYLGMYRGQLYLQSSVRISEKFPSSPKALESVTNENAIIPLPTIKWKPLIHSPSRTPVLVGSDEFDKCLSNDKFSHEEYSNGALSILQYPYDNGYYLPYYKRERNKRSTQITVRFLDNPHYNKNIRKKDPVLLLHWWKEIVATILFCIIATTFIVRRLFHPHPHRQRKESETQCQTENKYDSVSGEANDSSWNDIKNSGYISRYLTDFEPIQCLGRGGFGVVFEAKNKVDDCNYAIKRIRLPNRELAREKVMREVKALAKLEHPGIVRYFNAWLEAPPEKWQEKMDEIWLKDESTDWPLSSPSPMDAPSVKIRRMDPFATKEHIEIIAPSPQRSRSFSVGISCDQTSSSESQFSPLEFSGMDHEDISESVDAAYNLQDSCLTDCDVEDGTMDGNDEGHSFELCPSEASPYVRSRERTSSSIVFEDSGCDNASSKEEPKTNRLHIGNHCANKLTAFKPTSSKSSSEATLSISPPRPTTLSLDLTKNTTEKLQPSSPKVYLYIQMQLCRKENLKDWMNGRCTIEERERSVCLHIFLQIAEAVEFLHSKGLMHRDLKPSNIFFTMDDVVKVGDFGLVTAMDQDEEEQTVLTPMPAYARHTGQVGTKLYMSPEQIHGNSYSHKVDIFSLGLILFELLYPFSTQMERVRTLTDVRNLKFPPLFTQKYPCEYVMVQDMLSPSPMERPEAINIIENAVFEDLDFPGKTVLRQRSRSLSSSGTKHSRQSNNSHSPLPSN
Chain of EIF2AK3 (PERK) catalytic domain (amino acids 536-1116) (Q9NZJ5 536-1116): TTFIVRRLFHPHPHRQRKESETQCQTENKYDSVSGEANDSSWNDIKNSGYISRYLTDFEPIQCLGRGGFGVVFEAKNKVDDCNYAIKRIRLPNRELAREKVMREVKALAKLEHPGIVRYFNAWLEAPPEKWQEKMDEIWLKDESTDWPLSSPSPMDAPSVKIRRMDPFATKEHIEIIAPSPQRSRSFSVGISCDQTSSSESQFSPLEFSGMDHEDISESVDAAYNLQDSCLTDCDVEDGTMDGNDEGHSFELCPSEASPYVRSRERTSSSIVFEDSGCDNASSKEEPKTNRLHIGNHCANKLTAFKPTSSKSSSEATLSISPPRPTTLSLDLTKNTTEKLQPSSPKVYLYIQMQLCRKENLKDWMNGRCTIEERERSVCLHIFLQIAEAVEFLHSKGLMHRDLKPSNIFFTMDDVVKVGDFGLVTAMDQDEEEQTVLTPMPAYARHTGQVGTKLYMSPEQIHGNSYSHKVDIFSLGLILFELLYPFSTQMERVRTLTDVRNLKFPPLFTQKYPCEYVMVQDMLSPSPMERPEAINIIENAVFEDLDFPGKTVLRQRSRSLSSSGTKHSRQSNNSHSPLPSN

The IC50 is the concentration needed to halve the response being measured. For the compound `Cc1cc(NC(=O)C(O)c2ccccc2)ccc1-c1cnc(N)c(C(=O)NC(C)C)c1` (single isomer, unassigned) [Example 1, 2-amino-5-(4-(2-hydroxy-2-phenylacetamido)-2-methylphenyl)-N-isopropylnicotinamide], the concentration for half-maximal inhibition (IC50) in assay [1] lay in the range of 1 to 25 nM; in assay [2], 0.251 to 0.5 µM.

On to `Cc1cc(NC(=O)C(O)c2ccccc2)ccc1-c1cnc(N)c(C(=O)NC(C)C)c1` (single isomer, unassigned) [Example 2, 2-amino-5-(4-(2-hydroxy-2-phenylacetamido)-2-methylphenyl)-N-isopropylnicotinamide], for which the IC50 in assay [1] was in the range of 1 to 25 nM; in assay [2] it was 0.101 to 0.25 µM.

As for `CNC(=O)c1cc(-c2ccc(NC(=O)C(O)c3cc(F)cc(F)c3)cc2C)cnc1N` (single isomer, unassigned) [Example 10, 2-amino-5-(4-(2-(3,5-difluorophenyl)-2-hydroxyacetamido)-2-methylphenyl)-N-methylnicotinamide], the results for the IC50 in assay [1] and in assay [2] were 1 to 25 nM and 0.051 to 0.1 µM, respectively.

As for `CNC(=O)c1cc(-c2ccc(NC(=O)C(O)c3cc(F)cc(F)c3)cc2C)cnc1N` (single isomer, unassigned) [Example 11, 2-amino-5-(4-(2-(3,5-difluorophenyl)-2-hydroxyacetamido)-2-methylphenyl)-N-methylnicotinamide], the IC50 fell in the range of 501 to 1000 nM in assay [1] and 1 to 2 µM in assay [2].

`CCNC(=O)c1cc(-c2ccc(NC(=O)C(O)c3cc(F)cc(F)c3)cc2C)cnc1N` (single isomer, unassigned) [Example 12, 2-amino-5-(4-(2-(3,5-difluorophenyl)-2-hydroxyacetamido)-2-methylphenyl)-N-ethylnicotinamide]: the IC50 fell in the range of 1 to 25 nM in assay [1] and 0.026 to 0.05 µM in assay [2].

Take `CCNC(=O)c1cc(-c2ccc(NC(=O)C(O)c3cc(F)cc(F)c3)cc2C)cnc1N` (single isomer, unassigned) [Example 13, 2-amino-5-(4-(2-(3,5-difluorophenyl)-2-hydroxyacetamido)-2-methylphenyl)-N-ethylnicotinamide]: the figures for the IC50 in assay [1] and in assay [2] were 1 to 25 nM and 0.501 to 1 µM, respectively.

Turning to `Cc1cc(NC(=O)C(O)c2cc(F)cc(F)c2)ccc1-c1cnc(N)c(C(=O)NC(C)(C)C)c1` (single isomer, unassigned) [Example 16, 2-amino-N-(tert-butyl)-5-(4-(2-(3,5-difluorophenyl)-2-hydroxyacetamido)-2-methylphenyl) nicotinamide], the half-inhibitory concentration (IC50) in assay [1] lay within 26 to 50 nM; in assay [2], 0.101 to 0.25 µM.

`Cc1cc(NC(=O)C(O)c2cc(F)cc(F)c2)ccc1-c1cnc(N)c(C(=O)NC(C)(C)C)c1` (single isomer, unassigned) [Example 17, 2-amino-N-(tert-butyl)-5-(4-(2-(3,5-difluorophenyl)-2-hydroxyacetamido)-2-methylphenyl) nicotinamide]: the IC50 in assay [1] lay in the range of 251 to 500 nM; in assay [2], 0.501 to 1 µM.

Regarding `Cc1cc(NC(=O)C(O)c2cc(F)cc(F)c2)ccc1-c1cnc(N)c(C(=O)NCC(F)(F)F)c1` (single isomer, unassigned) [Example 18, 2-amino-5-(4-(2-(3,5-difluorophenyl)-2-hydroxyacetamido)-2-methylphenyl)-N-(2,2,2-trifluoroethyl) nicotinamide], the IC50 in assay [1] was in the range of 1 to 25 nM; in assay [2] it was 0.026 to 0.05 µM.

For the compound `Cc1cc(NC(=O)C(O)c2cc(F)cc(F)c2)ccc1-c1cnc(N)c(C(=O)NCC(F)(F)F)c1` (single isomer, unassigned) [Example 19, 2-amino-5-(4-(2-(3,5-difluorophenyl)-2-hydroxyacetamido)-2-methylphenyl)-N-(2,2,2-trifluoroethyl) nicotinamide], the results for the IC50 in assay [1] and in assay [2] were 101 to 250 nM and 0.101 to 0.25 µM, respectively.

On to `CC(C)NC(=O)c1cc(-c2ccc(NC(=O)C(O)c3cc(F)cc(F)c3)cc2Cl)cnc1N` (single isomer, unassigned) [Example 34], for which the IC50 in assay [1] was in the range of 1 to 25 nM; in assay [2], 0.001 to 0.025 µM.

Take `CC(C)NC(=O)c1cc(-c2ccc(NC(=O)C(O)c3cc(F)cc(F)c3)cc2Cl)cnc1N` (single isomer, unassigned) [Example 35]: the IC50 is 51 to 100 nM in assay [1] and 0.101 to 0.25 µM in assay [2].

As to `CCc1cc(NC(=O)C(O)c2cc(F)cc(F)c2)ccc1-c1cnc(N)c(C(=O)NC(C)C)c1` (single isomer, unassigned) [Example 38, 2-amino-5-(4-(2-(3,5-difluorophenyl)-2-hydroxyacetamido)-2-ethylphenyl)-N-isopropylnicotinamide], the IC50 lay within 1 to 25 nM in assay [1] and 0.001 to 0.025 µM in assay [2].

`CCc1cc(NC(=O)C(O)c2cc(F)cc(F)c2)ccc1-c1cnc(N)c(C(=O)NC(C)C)c1` (single isomer, unassigned) [Example 39, 2-amino-5-(4-(2-(3,5-difluorophenyl)-2-hydroxyacetamido)-2-ethylpehnyl)-N-isopropylnicotinamide]: the half-maximal inhibitory concentration (IC50) was in the range of 101 to 250 nM in assay [1] and 0.101 to 0.25 µM in assay [2].

On to `Cc1cc(NC(=O)C(O)c2cc(F)cc(F)c2)ccc1-c1cnc(N)c(C(=O)OC(C)C)c1` (single isomer, unassigned) [Example 42, isopropyl 2-amino-5-(4-(2-(3,5-difluorophenyl)-2-hydroxyacetamido)-2-methylphenyl) nicotinate], for which the figures for the IC50 in assay [1] and in assay [2] were 1 to 25 nM and 0.026 to 0.05 µM, respectively.

Turning to `Cc1cc(NC(=O)C(O)c2cc(F)cc(F)c2)ccc1-c1cnc(N)c(C(=O)OC(C)C)c1` (single isomer, unassigned) [Example 43, isopropyl 2-amino-5-(4-(2-(3,5-difluorophenyl)-2-hydroxyacetamido)-2-methylphenyl) nicotinate], the IC50 lay in the range of 51 to 100 nM in assay [1] and 0.251 to 0.5 µM in assay [2].

As to `CCc1cccc(C(O)C(=O)Nc2ccc(-c3cnc(N)c(C(=O)NC(C)C)c3)c(C)c2)c1` (single isomer, unassigned) [Example 72, 2-amino-5-(4-(2-(3-ethylphenyl)-2-hydroxyacetamido)-2-methylphenyl)-N-isopropylnicotinamide], the figures for the IC50 in assay [1] and in assay [2] were 1 to 25 nM and 0.001 to 0.025 µM, respectively.

`CCc1cccc(C(O)C(=O)Nc2ccc(-c3cnc(N)c(C(=O)NC(C)C)c3)c(C)c2)c1` (single isomer, unassigned) [Example 73, 2-amino-5-(4-(2-(3-ethylphenyl)-2-hydroxyacetamido)-2-methylphenyl)-N-isopropylnicotinamide]: the IC50 lay within 101 to 250 nM in assay [1] and 0.251 to 0.5 µM in assay [2].

For `CCc1cc(NC(=O)C(O)c2cccc(Cl)c2)ccc1-c1cnc(N)c(C(=O)NC(C)C)c1` (single isomer, unassigned) [Example 108, 2-amino-5-(4-(2-(3-chlorophenyl)-2-hydroxyacetamido)-2-ethylphenyl)-N-isopropylnicotinamide], the IC50 in assay [1] fell in the range of 1 to 25 nM; in assay [2] it was 0.001 to 0.025 µM.

As to `CCc1cc(NC(=O)C(O)c2cccc(Cl)c2)ccc1-c1cnc(N)c(C(=O)NC(C)C)c1` (single isomer, unassigned) [Example 109, 2-amino-5-(4-(2-(3-chlorophenyl)-2-hydroxyacetamido)-2-ethylphenyl)-N-isopropylnicotinamide], the IC50 in assay [1] fell in the range of 51 to 100 nM; in assay [2] it was 0.101 to 0.25 µM.

On to `CCc1ccccc1CC(=O)Nc1ccc(-c2cnc(N)c(C(=O)NC(C)C)c2)c(C)c1` [Example 204, 2-amino-5-(4-(2-(2-ethylphenyl)acetamido)-2-methylphenyl)-N-isopropylnicotinamide], for which the IC50 in assay [1] fell in the range of 101 to 250 nM.
